Tests used:
[1] = tested on: PD-L1 on Neuro2a and AgN2a cells; test: PD-L1 surface expression after IFNγ stimulation, mouse neuroblastoma cell lines (flow cytometry); type: cell-based
From the text: (§1) The expression of PD-L1 on human neuroblastoma cell lines SY5Y and SK-N-SH (non-NMYC amplified) had similar changes with exposure to IFNγ. […] Representative tumors were dissected from naïve mice (I, V, IX, and XIII) and from mice after receipt of Id2kd vaccine (II, VI, X, and XIV), Id2kd plus PD-L1 antibody (III, VII, XI, and XV), and Id2kd plus CTLA-4 antibody (IV, VIII, XII, and XVI). Hematoxylin and eosin (H&E) staining (I±VIII) and immunofluorescence double staining (IX-XVI) for CD3 and PD-L1 were performed. The nuclei were stained with 4′,6-diamidino-2-phenylindole (DAPI). Representative micrographs from each cohort are shown. Areas of necrotic tissues are marked with black broken lines and coincide with areas of inflammatory cell infiltrates. […]
(§2) FIGS. 5A and 5B show PD-L1 is expressed at 3.7-fold-lower levels on aggressive mouse neuroblastoma cell line AgN2a, as evidenced by flow cytometry (FIG. 5A) and real-time quantitative PCR (RT-qPCR) (p<0.005, Student t test; FIG. 5B). […]
Cells from mouse tumor digests and mouse splenocytes were stained with the fluorescently conjugated antibodies described above. […] Data were analyzed using the FlowJo program (Treestar, Ashland, Oreg.). […]
(§3) A possible explanation may be the differential constitutive expression of PD-L1 by tumor cells. […] The response of PD-L1 expression to IFNγ stimulation was also determined.

[2] = tested on: PD-L1 on SK-N-SH, SH-SY5Y and IMR-32 cells; test: PD-L1 expression after IFNγ stimulation, human neuroblastoma cell lines; type: cell-based
From the text: as §1, with “infiltrates. Panel 1 (I-IV) and panel 3 (IX-XII) are 40× and 100× original magnification, respectively.” for “infiltrates.”
as §2, §3

[3] = tested on: ApoE; test: IFNγ ELISA of splenocytes cocultured with Myc-suppressed irradiated B16 cells with ApoE agonist or anti-ApoE antibody; type: cell-based, mouse
Protocol: IFNγ was measured at 48 hours of culture (pg/ml). S: splenocytes; NS: naïve splenocytes; VS: vaccinated splenocytes; S1S: splenocytes dissected from survivor mouse; Treated: B16 cells expose to 0.25 μM BET/0.25 μM JQ1 for 4 days.
IFNγ production was quantified by ELISA at 48 hours.

Row | Substance | PD-L1 up-regulation ([1]; AgN2a, highest concentrations tested) | PD-L1 surface expression ([1]; Neuro2a, 24 hours of stimulation) | PD-L1 up-regulation ([2]; MYCN-amplified IMR-32, highest concentrations tested) | PD-L1 expression ([2]; SK-N-SH and SH-SY5Y (non-MYCN amplified), increasing doses) | IFNγ production, fold reduction ([3]; 0.3, 3 and 9 μM, 48 hours, ELISA, FIG. 10A) [fold reduction] | IFNγ secretion from splenocytes ([3]; 48 hours of culture, FIGS. 10A and 10B) | TNFα and Rantes production ([3]; co-culture with vaccinated splenocytes)
1 | IFNγ | failed to up-regulate PD-L1 | increase in a dose-dependent manner | failed to up-regulate PD-L1 | rises markedly |  |  | 
2 | LRVRLASHLRKLRKRLL (SEQ ID NO: 1) (COG133) [ApoE agonist peptide fragment] |  |  |  |  | 6 | significantly suppressed in a dose dependent manner | repressed

Reference: US20220111044A1, “WHOLE CELL TUMOR VACCINES AND METHODS OF USE THEROF” (CHILDREN'S NATIONAL MEDICAL CENTER, priority 2019, published 2022)
